Laboratory results published in patent US8551516B2, “Administration of non-oral androgenic steroids to women” (Actavis, Inc., priority 1999, dated 2013).

Columns and labels:
[1] = biological target: T1, sex hormone binding globulin (SHBG) (Homo sapiens, UniProt P04278); settings: adapted from Dunn et al. 1981; human plasma; cited from earlier work
T1 sequence (P04278 30-402): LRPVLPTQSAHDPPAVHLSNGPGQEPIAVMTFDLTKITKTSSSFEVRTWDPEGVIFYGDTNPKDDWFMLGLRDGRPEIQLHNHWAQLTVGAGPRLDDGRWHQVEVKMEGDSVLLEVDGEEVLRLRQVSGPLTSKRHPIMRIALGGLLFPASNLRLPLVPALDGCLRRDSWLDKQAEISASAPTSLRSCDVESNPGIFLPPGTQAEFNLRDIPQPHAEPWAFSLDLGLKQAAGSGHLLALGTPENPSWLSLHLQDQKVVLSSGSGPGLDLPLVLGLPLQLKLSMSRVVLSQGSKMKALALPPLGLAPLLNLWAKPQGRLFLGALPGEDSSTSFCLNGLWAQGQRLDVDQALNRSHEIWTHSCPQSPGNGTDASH

[2] = tested on: SHBG; settings: known from literature (Bond et al. 1987; Miller et al. 1998); cited from earlier work
[3] = tested on: SHBG; test: Serum SHBG level prior to patch application in the pharmacokinetic study; format: in vivo, human; settings: mean±SEM, surgically menopausal women on the estrogen
From the text: The structure and proposed functions of SHBG have been described and characterized. See, for example, Rosner et al., Sex Hormone-Binding Globulin Mediates Steroid Hormone Signal Transduction at the Plasma Membrane, J. Steroid Biochem. Mol. Biol. Vol. 69:481-5 (1999); Petra, P. H. The plasma Sex Steroid Binding Protein (SBP or SHBG). A Critical Review of Recent Developments on the Structure, Molecular Biology, and Function, J. Steroid Biochem. Mol. Biol., Vol. 40:735-53 (1991). A variety of methods have been used to quantify the serum concentrations of SHBG, including ammonium sulfate precipitation, gel filtration, equilibrium dialysis, dextran-coated charcoal, and radioimmunoassay. See, for example, Khan et al., Radioimmunoassay for Human Testosterone-Estradiol-Binding Globulin, J. Clinical Endocrinology and Metabolism, Vol. 54:705-710 (1982). […] Serum SHBG levels are known to be elevated in women treated with oral estrogens, estrogen-containing oral contraceptives, clomiphene, tamoxifen, raloxifene, phenytoin, and sodium valproate, as well as in women who are pregnant, hyperthyroid, have chronic liver disease and HIV-infection. See for example, Bond et al., Sex Hormone Binding Globulin in Clinical Perspective, Acta. Obstet. Gynecol. […]

Structure (SMILES) | K (binding affinity constant for SHBG) [1] | Serum SHBG levels in women treated [2] | other results
CC(=O)[C@@]1(O)CC[C@H]2[C@@H]3CCC4=CC(=O)CC[C@]4(C)[C@H]3CC[C@@]21C [17-hydroxyprogesterone] | 9.9 10^6 Liter/mole | – | –
C[C@]12CCC(O)C[C@@H]1CC[C@@H]1[C@@H]2CC[C@]2(C)[C@@H](O)CC[C@@H]12 (some centres unmarked) [androstanediol] | 1300 10^6 Liter/mole | – | –
C[C@]12CCC(=O)C=C1CC[C@@H]1[C@@H]2CC[C@]2(C)C(=O)CC[C@@H]12 [androstenedione] | 29 10^6 Liter/mole | – | –
C[C@]12CC[C@@H](O)C[C@@H]1CC[C@@H]1[C@@H]2CC[C@]2(C)C(=O)CC[C@@H]12 [androsterone] | 14 10^6 Liter/mole | – | –
CCN(CC)CCOc1ccc(C(=C(Cl)c2ccccc2)c2ccccc2)cc1 [clomiphene] | – | elevated | –
C[C@]12CC[C@H](O)CC1=CC[C@@H]1[C@@H]2CC[C@]2(C)C(=O)CC[C@@H]12 [dehydroepiandrosterone] | 66 10^6 Liter/mole | – | –
C[C@]12CCC(=O)C[C@@H]1CC[C@@H]1[C@@H]2CC[C@]2(C)[C@@H](O)CC[C@@H]12 [dihydrotestosterone] | 5500 10^6 Liter/mole | – | –
C[C@]12CC[C@@H]3c4ccc(O)cc4CC[C@H]3[C@@H]1CC[C@@H]2O [estradiol] | – | – | SHBG [3]: 90.8 ± 12.9 nmol/L
C[C@]12CC[C@@H]3c4ccc(O)cc4CC[C@H]3[C@@H]1C[C@@H](O)[C@@H]2O [estriol] | 4.3 10^6 Liter/mole | – | –
O=C1NC(=O)C(c2ccccc2)(c2ccccc2)N1 [phenytoin] | – | elevated | –
CC(=O)[C@H]1CC[C@H]2[C@@H]3CCC4=CC(=O)CC[C@]4(C)[C@H]3CC[C@]12C [progesterone] | 8.8 10^6 Liter/mole | – | –
O=C(c1ccc(OCCN2CCCCC2)cc1)c1c(-c2ccc(O)cc2)sc2cc(O)ccc12 [raloxifene] | – | elevated | –
CCCC(CCC)C(=O)[O-].[Na+] [sodium valproate] | – | elevated | –
CC/C(=C(\c1ccccc1)c1ccc(OCCN(C)C)cc1)c1ccccc1 [tamoxifen] | – | elevated | –
